Source: patent publication US20160175457A1, “OCULAR DEVICE” (DSM IP ASSETS B.V., priority 2013, published 2016)
Entries after “also recorded” stand apart in the source; their conditions may differ. Where two headings read alike, the source gives them in different places. No end group written: not given here.

Experiments:
[1] = tested on: proteinases present in tear fluid (contact lens rinsing liquid); test: Incubation of synthetic peptides with tear fluid / contact lens rinsing liquid, cleavage followed by mass spectrometry; assay type: biochemical, human; conditions: for endoproteolytic cleavage after Arg or Val by tear fluid / proteolytic cleavage observed after incubation with tear fluid (rinsing fluid): 162 hours (FIG. 2) / 165 hours at 25 degrees C.
Experimental: (§1) Stock solutions (1 mg/ml in 5% acetonitrile) were prepared from the synthetic peptide substrates. The stock solutions are optionally 10× diluted with MilliQ water prior to incubation. Elastase (Sigma #: E7885), Tryptase (Sigma #: T7063), or tear fluid were added to the diluted substrate solutions and incubation was performed at 25° C. Aliquots of 20 μl were taken at several time points to monitor substrate degradation.
(§2) The aliquots were 10× diluted in 50% acetonitrile, 0.1% formic acid prior to analysis. Mass Spectrometric (MS) analysis was performed by infusion in the LTQ-Orbitrap Fourier Transform Mass Spectrometer (Thermo Fisher, Bremen, Germany). Infusion was performed by mixing 10 μl min^−1 of sample in a 200 μl min^−1 flow of 50% acetonitrile, 0.1% formic acid. The MS analysis was performed in the Orbitrap scanning at 7500 resolution using 200-1600 m/z mass range. Proteolytic activity during the different incubations of the synthetic peptides substrates was studied by manual inspection of the MS data using the Qual browser in the XCalibur software (Thermo Fisher, Bremen, Germany).
Contact lens wearing subjects were invited to participate at the end of their working day. Using sterilized gloves, lenses were removed and the inner surface of each lens was rinsed with 250 microliter of sterilized water. Then 100 microliter samples of the rinsing liquid were incubated overnight at 25 degrees C. with 100 μl of a 1.0 mg/ml BODIPY TR-X casein solution (EnzChek Protease Assay kit ‘Red fluorescence’; Molecular Probes, Eugene, Oreg., USA). Throughout the incubation the fluorescence of the samples was measured every minute (kinetic measurement) according to the EnzChek kit protocol (excitation=590±10 nm, emission=645±20 nm) using a Tecan Infinite M1000 microtiterplate reader (Männedorf, Switzerland).
After its purification, the peptide was incubated with contact lens rinsing liquid (cf. Example 1) of a single individual and incubated over the weekend at 25° C. Then samples of the incubation liquid were subjected to mass spectrometry to confirm cleavage. […] An incubation of the peptide with human leukocyte elastase (Sigma Aldrich) yielded GPLALL and AQ as the major cleavage products. An incubation of the peptide with human lung tryptase (also from Sigma Aldrich) yielded GPLAL/LAQ as the major cleavage products (see FIG. 1). The latter observations indicate that a peptide incorporating aliphatic hydrophobic residues like Ala and Leu support cleavage by human, tryptase- and elastase-like enzymes.
In this Example we test the cleavage activity of tear fluid on two, slightly different synthetic peptides. The first peptide comprises Arg as a charged, basic residue (Ala-Ala-Pro-Arg-Ala-Ala-Arg-Gln, AAPRAARQ (SEQ ID NO: 4)) in order to facilitate cleavage by trypsin-like endoproteases. The second peptide comprises the medium sized aliphatic hydrophobic residue Val instead of Arg (Ala-Ala-Pro-Val-Ala-Ala-Arg-Gln, AAPVAARQ (SEQ ID NO: 5)) in order to facilitate cleavage by elastase-like endoproteases. The experiment was executed essentially as described in Example 2, but in this case tear fluid of four different individuals was obtained and incubated for 165 hours at 25 degrees C. Samples of the incubation liquid were again subjected to mass spectrometry.

human leukocyte elastase = test: Incubation of synthetic peptides with human leukocyte elastase, mass spectrometry; assay type: biochemical
Experimental: as §1, §2
(§3) After its purification, the peptide was incubated with contact lens rinsing liquid (cf. Example 1) of a single individual and incubated over the weekend at 25° C. Then samples of the incubation liquid were subjected to mass spectrometry to confirm cleavage. […]

human lung tryptase = test: Incubation of synthetic peptide with human lung tryptase, mass spectrometry; assay type: biochemical; conditions: 25° C., overnight (FIG. 1)
Experimental: as §1, §2, §3

[2] = tested on: T1, peptide Gly-Pro-Leu-Ala-Leu-Leu-Ala-Gln (GPLALLAQ)
T1 sequence: GPLALLAQ

[3] = tested on: proteinases in contact lens rinsing liquid (tear fluid); test: Incubation of hyaluronic acid-peptide-HEMA conjugate with lyophilized contact lens rinsing liquid, LC-MS of peptide-HEMA fragments; assay type: biochemical, human; conditions: 35 hours at 35° C., rinsing liquid of five individuals (hard and soft lenses)
Description: (§4) To cope with this experimental difficulty, we decided to focus on the identification of Peptide-HEMA fragments that can be expected to be released from the hyaluronic acid-peptide-HEMA conjugate upon exposure to a suitable proteolytic activity. On the basis of peptide hydrolysis data gathered in Examples 2 and 5, peptide Leu-Leu-Leu-Ala-Ala-Gly (LLLAAG) was synthesized and used to prepare a hyaluronic acid-peptide-HEMA conjugate (Example 6).
Rinsing liquid was collected from 5 individuals, two wearing hard lenses and three wearing soft lenses, at the end of the working day over multiple days. The lenses were collected using sterile nitrile gloves and rinsed with 200 μl MilliQ water on a flat glass microscope slide (Thermo Scientific) containing Grace Bio-labs Press-to-Seal silicone isolator, No PSA (Sigma Aldrich GBL664504-25EA). The rinse liquid was transferred to a Protein LoBind Tube 2.0 ml (Eppendorf) using Maxymum Recovery pipette tips (Axygen scientific). The rinse liquid was frozen at −80° C. as soon as possible. Rinsing fluid was lyophilized overnight when >1.5 ml rinsing liquid was collected for each individual.
Hyaluronic acid-peptide-HEMA conjugates are too heterologous in mass to be directly detected by MS. […]
The conjugate (Example 6) was dissolved in 50 mM ammonium acetate buffer at 0.2 mg/ml and analyzed by 25 μl injections on the LC-MS system. […]

human elastase = test: Incubation of hyaluronic acid-peptide-HEMA conjugate with human elastase preparation, LC-MS; assay type: biochemical; conditions: 35° C., data not shown
Experimental: as §4
The conjugate (Example 6) was dissolved in 50 mM ammonium acetate buffer at 0.2 mg/ml and analyzed by 25 μl injections on the LC-MS system. The LC-MS system consisted of an Accela UHPLC (Thermo Fisher, Bremen, Germany) coupled to the LTQ-Orbitrap Fourier Transform Mass Spectrometer. The column used was a ZORBAX Rapid Resolution HT SB-C18, 2.1×50 mm, 1.8 μm (Agilent 827700-902). The autosampler was set to 35° C. for incubation of the samples and the column oven was set to 50° C. The analytes in the samples were separated using a flow of 0.8 ml min^−1 and the following gradient was used: […]
0-0.2 min 2.5% B, 0.2-2 min 2.5-30% B, 2-2.5 min 30-80% B, 2.5-3 min 80% B, 3.01-5 min 2.5% B, where buffer A is 0.1% Formic Acid in Water (Biosolve, LC-MS grade) and buffer B is 0.1% Formic Acid in Acetonitrile (Biosolve, LC-MS grade). The MS was scanning at 7500 resolution m/z 150-800. […]

[4] = biological target: T2, hyaluronic acid-peptide-HEMA conjugate (hyaluronic acid-Leu-Leu-Leu-Ala-Ala-Gly-HEMA)
T2 chain: LLLAAG

[5] = biological target: T3, peptide Gly-Pro-Leu-Ala-Leu-Leu-Ala-Gln (GPLALLAQ)
T3 chain: GPLALLAQ

[6] = biological target: T4, peptide Leu-Leu-Leu-Ala-Ala-Gly (LLLAAG)
T4 chain: LLLAAG

“AAPRAARQ (peptide sequence cleavable by proteinases present in tear fluid) [Ala-Ala-Pro-Arg-Ala-Ala-Arg-Gln, synthetic test peptide comprising Arg as a charged, basic residue]” was tested, and the “endoproteolytic cleavage after Arg or Val by tear fluid” value [1] was “Hydrolysis of peptide bonds involving Arg (R) is not observed” and the “proteolytic cleavage observed after incubation with tear fluid (rinsing fluid)” value [1] was “only showing cleavage at the N-terminal Ala”.

For “AAPVAARQ (peptide sequence cleavable by proteinases present in tear fluid) [Ala-Ala-Pro-Val-Ala-Ala-Arg-Gln, synthetic test peptide comprising Val instead of Arg]”, the “endoproteolytic cleavage after Arg or Val by tear fluid” value [1] was “Cleavage C-terminal of Val does not occur” and the “proteolytic cleavage observed after incubation with tear fluid (rinsing fluid)” value [1] was “hydrolysis of the peptide bond between Pro and Val”.

“GPLALLAQ (peptide sequence cleavable by proteinases present in tear fluid) [Gly-Pro-Leu-Ala-Leu-Leu-Ala-Gln, linker test peptide cleavable by tear fluid proteinases]” was tested, and the “cleavage products identified after incubation with contact lens rinsing liquid (tear fluid)” value ([1]; rinsing liquid of a single individual, over the weekend at 25° C.) was “GPLAL and LAQ, GPL and ALLAQ and GPLA and LLAQ”, the “major cleavage products after incubation with human leukocyte elastase” value (human leukocyte elastase; 25° C., 30 minutes (FIG. 1)) was “GPLALL and AQ” and the “major cleavage products after incubation with human lung tryptase” value (human lung tryptase) was “GPLAL/LAQ”.

In the case of LLLAAG, the “conversion of intact peptide by elastase (digestion pattern)” value (human leukocyte elastase; overnight at room temperature, 50 mM ammonium acetate buffer) is reported as “converted to fragment Leu-Leu-Leu-Ala (LLLA); also recorded: completely converted to LLLA”.

With human lung tryptase the “peptide cleavage products by mass spectrometry” value (“peptide cleavage products” for short) [2] was “yielded GPLAL/LAQ as the major cleavage products”.

In the case of “hyaluronic acid-peptide-HEMA conjugate: conjugate of hyaluronic acid with NH2-Leu-Leu-Leu-Ala-Ala-Gly hexapeptide and HEMA (hydroxyethyl methacrylate) (LLLAAG; not fully specified (N-terminus, C-terminus); printed as Leu-Leu-Leu-Ala-Ala-Gly; also: conjugate with hyaluronic acid and HEMA, attachment not given here)”, the “peptide-HEMA fragments formed upon incubation with concentrated (lyophilized) contact lens rinsing liquid” value [3] is reported as “formation of various peptide-HEMA fragments; also recorded: is able to cleave the peptide of the hyaluronic acid-peptide-HEMA conjugate; also recorded: LAAG-HEMA” and the “peptide-HEMA fragments formed upon incubation with elastase” value (human elastase) is reported as “formation of the expected AG-HEMA fragment”.

B1: human leukocyte elastase (protein)
chain: IVGGRRARPHAWPFMVSLQLRGGHFCGATLIAPNFVMSAAHCVANVNVRAVRVVLGAHNLSRREPTRQVFAVQRIFENGYDPVNLLNDIVILQLNGSATINANVQVAQLPAQGRRLGNGVQCLAMGWGLLGRNRGIASVLQELNVTVVTSLCRRSNVCTLVRGRQAGVCFGDSGSPLVCNGLIHGIASFVRGGCASGLYPDAFAPVAQFVNWIDSIIQ
In the case of B1, the “peptide-HEMA fragments by LC-MS” value [4] is reported as “showed the formation of the expected AG-HEMA fragment”, the “peptide cleavage products” value [5] is reported as “yielded GPLALL and AQ as the major cleavage products” and the “peptide cleavage products” value [6] is reported as “precursor peptide Leu-Leu-Leu-Ala-Ala-Gly (LLLAAG) was converted to fragment Leu-Leu-Leu-Ala (LLLA)”.
